Test results reported in patent US11427548B2 (Arvinas Operations, Inc., priority 2015, dated 2022).

Target: T1, Androgen Receptor (Homo sapiens, UniProt P10275+P40337, T878A)
T1 construct: Compounds have been evaluated in this assay in LNCaP and/or VCaP cells utilizing similar protocols; endogenous in cells; host or cells: LNCaP cells
Assay: Androgen Receptor ELISA assay (PathScan AR ELISA) in LNCaP cells: AR degradation, Dmax and DC50
Type: cell-based
Settings: for DC50: concentration that caused 50% Androgen Receptor degradation; for Dmax: highest percentage of Androgen Receptor degradation observed

T1 sequence (P10275 whole entry T878A): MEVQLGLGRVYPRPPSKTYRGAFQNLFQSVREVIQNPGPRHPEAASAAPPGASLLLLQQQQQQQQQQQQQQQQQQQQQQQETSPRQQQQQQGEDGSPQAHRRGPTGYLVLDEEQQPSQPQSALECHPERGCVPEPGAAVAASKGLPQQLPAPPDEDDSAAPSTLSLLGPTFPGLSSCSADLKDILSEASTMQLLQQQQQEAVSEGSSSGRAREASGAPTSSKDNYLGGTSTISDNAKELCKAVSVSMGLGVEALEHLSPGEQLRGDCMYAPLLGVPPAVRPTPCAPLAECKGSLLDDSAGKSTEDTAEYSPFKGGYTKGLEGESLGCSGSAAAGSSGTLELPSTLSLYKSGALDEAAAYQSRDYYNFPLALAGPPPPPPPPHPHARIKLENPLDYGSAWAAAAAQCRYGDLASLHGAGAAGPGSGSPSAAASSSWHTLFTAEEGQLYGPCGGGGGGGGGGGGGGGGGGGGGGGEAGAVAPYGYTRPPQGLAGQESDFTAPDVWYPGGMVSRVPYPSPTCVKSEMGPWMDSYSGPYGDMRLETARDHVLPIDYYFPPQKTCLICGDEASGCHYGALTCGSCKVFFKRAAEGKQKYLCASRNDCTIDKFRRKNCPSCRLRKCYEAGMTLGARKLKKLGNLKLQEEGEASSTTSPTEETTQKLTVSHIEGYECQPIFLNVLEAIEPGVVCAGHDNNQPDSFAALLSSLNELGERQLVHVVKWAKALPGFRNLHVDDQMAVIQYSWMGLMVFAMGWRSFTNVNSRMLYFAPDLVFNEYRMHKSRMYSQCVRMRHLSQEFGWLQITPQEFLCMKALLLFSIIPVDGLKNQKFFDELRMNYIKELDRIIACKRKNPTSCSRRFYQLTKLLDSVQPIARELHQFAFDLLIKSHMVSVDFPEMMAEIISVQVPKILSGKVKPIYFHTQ
T1 sequence (P40337 whole entry): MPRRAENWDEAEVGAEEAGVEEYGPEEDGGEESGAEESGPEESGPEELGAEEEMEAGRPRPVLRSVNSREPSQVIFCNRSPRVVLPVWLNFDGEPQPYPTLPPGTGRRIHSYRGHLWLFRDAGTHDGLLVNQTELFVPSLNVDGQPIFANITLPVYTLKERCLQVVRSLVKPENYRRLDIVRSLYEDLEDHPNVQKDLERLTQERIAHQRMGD
T1 sequence (Q15369 whole entry partner): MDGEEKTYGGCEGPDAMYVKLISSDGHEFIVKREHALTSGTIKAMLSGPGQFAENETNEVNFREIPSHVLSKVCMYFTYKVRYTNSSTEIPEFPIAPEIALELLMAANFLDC
T1 sequence (Q15370 whole entry partner): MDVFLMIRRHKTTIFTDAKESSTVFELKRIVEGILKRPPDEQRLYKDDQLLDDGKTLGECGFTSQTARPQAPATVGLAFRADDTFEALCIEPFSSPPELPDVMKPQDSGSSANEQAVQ

SMILES | DC50 [nM] | Dmax [%]
COc1cc(N2C(=O)C(C)(C)N(c3ccc(OCCCCCOCCCOCC(=O)N[C@H](C(=O)N4C[C@H](O)C[C@H]4C(=O)NCc4ccc(-c5scnc5C)cc4)C(C)(C)C)cc3)C2=S)ccc1C#N [Example 9, (2S,4R)-1-[(2S)-2-(2-{3-[(5-{4-[3-(4-cyano-3-methoxyphenyl)-5,5-dimethyl-4-oxo-2-sulfanylideneimidazolidin-1-yl]phenoxy}pentyl)oxy]propoxy}acetamido)-3,3-dimethylbutanoyl]-4-hydroxy-N-{[4-(4-methyl-1,3-thiazol-5-yl)phenyl]methyl}pyrrolidine-2-carboxamide] | < 50 | > 71
Cc1ncsc1-c1ccc(CNC(=O)[C@@H]2C[C@@H](O)CN2C(=O)[C@@H](NC(=O)COCCOCCOCCOc2ccc(N3C(=O)N(c4ccc(C#N)c(C(F)(F)F)c4)C(=O)C3(C)C)cc2)C(C)(C)C)cc1 [Example 17, (2S,4R)-1-[(2S)-2-[2-(2-{2-[2-(4-{3-[4-cyano-3-(trifluoromethyl)phenyl]-5,5-dimethyl-2,4-dioxoimidazolidin-1-yl}phenoxy)ethoxy]ethoxy}ethoxy)acetamido]-3,3-dimethylbutanoyl]-4-hydroxy-N-{[4-(4-methyl-1,3-thiazol-5-yl)phenyl]methyl}pyrrolidine-2-carboxamide] | 51 to 500 | 26 to 50
Cc1ncsc1-c1ccc(CNC(=O)[C@@H]2C[C@@H](O)CN2C(=O)[C@@H](NC(=O)COCCOCCOCCOc2ccc(N3C(=S)N(c4ccc(C#N)c(C(F)(F)F)c4)C(=O)C3(C)C)cc2F)C(C)(C)C)cc1 [Example 18, (2S,4R)-1-[(2S)-2-[2-(2-{2-[2-(4-{3-[4-cyano-3-(trifluoromethyl)phenyl]-5,5-dimethyl-4-oxo-2-sulfanylideneimidazolidin-1-yl}-2-fluorophenoxy)ethoxy]ethoxy}ethoxy)acetamido]-3,3-dimethylbutanoyl]-4-hydroxy-N-{[4-(4-methyl-1,3-thiazol-5-yl)phenyl]methyl}pyrrolidine-2-carboxamide] | 51 to 500 | 51 to 70
Cc1ncsc1-c1ccc(CNC(=O)[C@@H]2C[C@@H](O)CN2C(=O)[C@@H](NC(=O)COCCOCCOCCOc2ccc(N3C(=S)N(c4ccc([N+](=O)[O-])c(C(F)(F)F)c4)C(=O)C3(C)C)cc2)C(C)(C)C)cc1 [Example 19, (2S,4R)-1-[(2S)-2-[2-(2-{2-[2-(4-{5,5-dimethyl-3-[4-nitro-3-(trifluoromethyl)phenyl]-4-oxo-2-sulfanylideneimidazolidin-1-yl}phenoxy)ethoxy]ethoxy}ethoxy)acetamido]-3,3-dimethylbutanoyl]-4-hydroxy-N-{[4-(4-methyl-1,3-thiazol-5-yl)phenyl]methyl}pyrrolidine-2-carboxamide] | < 50 | 51 to 70
Cc1ncsc1-c1ccc([C@H](C)NC(=O)[C@@H]2C[C@@H](O)CN2C(=O)[C@@H](NC(=O)COCCOCCOCCOc2ccc(N3C(=S)N(c4ccc(C#N)c(C(F)(F)F)c4)C(=O)C3(C)C)cc2)C(C)(C)C)cc1 [Example 20, (2S,4R)-1-[(2S)-2-[2-(2-{2-[2-(4-{3-[4-cyano-3-(trifluoromethyl)phenyl]-5,5-dimethyl-4-oxo-2-sulfanylideneimidazolidin-1-yl}phenoxy)ethoxy]ethoxy}ethoxy)acetamido]-3,3-dimethylbutanoyl]-4-hydroxy-N-[(1S)-1-[4-(4-methyl-1,3-thiazol-5-yl)phenyl]ethyl]pyrrolidine-2-carboxamide] | 51 to 500 | > 71
Cc1ncsc1-c1ccc(CNC(=O)[C@@H]2C[C@@H](O)CN2C(=O)[C@@H](NC(=O)COCCOCCOCCOc2ccc(N3C(=S)N(c4cnc(C#N)c(C(F)(F)F)c4)C(=O)C3(C)C)cc2)C(C)(C)C)cc1 [Example 21, (2S,4R)-1-[(2S)-2-[2-(2-{2-[2-(4-{3-[6-cyano-5-(trifluoromethyl)pyridin-3-yl]-5,5-dimethyl-4-oxo-2-sulfanylideneimidazolidin-1-yl}phenoxy)ethoxy]ethoxy}ethoxy)acetamido]-3,3-dimethylbutanoyl]-4-hydroxy-N-{[4-(4-methyl-1,3-thiazol-5-yl)phenyl]methyl}pyrrolidine-2-carboxamide] | – | 26 to 50
Cc1ncsc1-c1ccc(CNC(=O)[C@@H]2C[C@@H](O)CN2C(=O)[C@@H](NC(=O)COCCO[C@H](C)[C@@H](C)OCCOc2ccc(N3C(=S)N(c4ccc(C#N)c(C(F)(F)F)c4)C(=O)C3(C)C)cc2)C(C)(C)C)cc1 [Example 23, (2S,4R)-1-[(2S)-2-[2-(2-{[(2R,3R)-3-[2-(4-{3-[4-cyano-3-(trifluoromethyl)phenyl]-5,5-dimethyl-4-oxo-2-sulfanylideneimidazolidin-1-yl}phenoxy)ethoxy]butan-2-yl]oxy}ethoxy)acetamido]-3,3-dimethylbutanoyl]-4-hydroxy-N-{[4-(4-methyl-1,3-thiazol-5-yl)phenyl]methyl}pyrrolidine-2-carboxamide] | 51 to 500 | > 71
Cc1ncsc1-c1ccc(CNC(=O)[C@@H]2C[C@@H](O)CN2C(=O)[C@@H](NC(=O)COCCCCOCCCCOc2ccc(N3C(=S)N(c4ccc(C#N)c(C(F)(F)F)c4)C(=O)C3(C)C)cc2)C(C)(C)C)cc1 [Example 24, (2S,4R)-1-[(2S)-2-(2-{4-[4-(4-{3-[4-cyano-3-(trifluoromethyl)phenyl]-5,5-dimethyl-4-oxo-2-sulfanylideneimidazolidin-1-yl}phenoxy)butoxy]butoxy}acetamido)-3,3-dimethylbutanoyl]-4-hydroxy-N-{[4-(4-methyl-1,3-thiazol-5-yl)phenyl]methyl}pyrrolidine-2-carboxamide] | < 50 | > 71
Cc1ncsc1-c1ccc(CNC(=O)[C@@H]2C[C@@H](O)CN2C(=O)[C@@H](NC(=O)COCCOCCNC(=O)CCCc2ccc(N3C(=S)N(c4ccc(C#N)c(C(F)(F)F)c4)C(=O)C3(C)C)cc2)C(C)(C)C)cc1 [Example 62, (2S,4R)-1-((S)-2-tert-butyl-16-(4-(3-(4-cyano-3-(trifluoromethyl)phenyl)-5,5-dimethyl-4-oxo-2-thioxoimidazolidin-1-yl)phenyl)-4,13-dioxo-6,9-dioxa-3,12-diazahexadecane)-4-hydroxy-N-(4-(4-methylthiazol-5-yl)benzyl)pyrrolidine-2-carboxamide] | > 501 | 51 to 70
Cc1ncsc1-c1ccc(CNC(=O)[C@@H]2C[C@@H](O)CN2C(=O)[C@@H](NC(=O)COCCOCCN(C)C(=O)CCCc2ccc(N3C(=S)N(c4ccc(C#N)c(C(F)(F)F)c4)C(=O)C3(C)C)cc2)C(C)(C)C)cc1 [Example 64, (2S,4R)-1-[(2S)-2-[2-(2-{2-[4-(4-{3-[4-cyano-3-(trifluoromethyl)phenyl]-5,5-dimethyl-4-oxo-2-sulfanylideneimidazolidin-1-yl}phenyl)-N-methylbutanamido]ethoxy}ethoxy)acetamido]-3,3-dimethylbutanoyl]-4-hydroxy-N-{[4-(4-methyl-1,3-thiazol-5-yl)phenyl]methyl}pyrrolidine-2-carboxamide] | 51 to 500 | 51 to 70
Cc1ncsc1-c1ccc(CNC(=O)[C@@H]2C[C@@H](O)CN2C(=O)[C@@H](NC(=O)CCOCCOCCOc2ccc(-c3ccc(N4C(=S)N(c5ccc(C#N)c(C(F)(F)F)c5)C(=O)C4(C)C)cc3)cc2)C(C)(C)C)cc1 [Example 68, (2S,4R)-1-[(2S)-2-[3-(2-{2-[4-(4-{3-[4-cyano-3-(trifluoromethyl)phenyl]-5,5-dimethyl-4-oxo-2-sulfanylideneimidazolidin-1-yl}phenyl)phenoxy]ethoxy}ethoxy)propanamido]-3,3-dimethylbutanoyl]-4-hydroxy-N-{[4-(4-methyl-1,3-thiazol-5-yl)phenyl]methyl}pyrrolidine-2-carboxamide] | 51 to 500 | 26 to 50
Cc1ncsc1-c1ccc(CNC(=O)[C@@H]2C[C@@H](O)CN2C(=O)[C@@H](NC(=O)CCOCCCCCOc2ccc(-c3ccc(N4C(=S)N(c5ccc(C#N)c(C(F)(F)F)c5)C(=O)C4(C)C)cc3)cc2)C(C)(C)C)cc1 [Example 72, (2S,4R)-1-[(2S)-2-[3-({5-[4-(4-{3-[4-cyano-3-(trifluoromethyl)phenyl]-5,5-dimethyl-4-oxo-2-sulfanylideneimidazolidin-1-yl}phenyl)phenoxy]pentyl}oxy)propanamido]-3,3-dimethylbutanoyl]-4-hydroxy-N-{[4-(4-methyl-1,3-thiazol-5-yl)phenyl]methyl}pyrrolidine-2-carboxamide] | 51 to 500 | > 71
Cc1ncsc1-c1ccc(CNC(=O)[C@@H]2C[C@@H](O)CN2C(=O)[C@@H](NC(=O)OCCOCCOc2ccc(-c3ccc(N4C(=S)N(c5ccc(C#N)c(C(F)(F)F)c5)C(=O)C4(C)C)cc3F)cc2)C(C)(C)C)cc1 [Example 76, 2-{2-[4-(4-{3-[4-cyano-3-(trifluoromethyl)phenyl]-5,5-dimethyl-4-oxo-2-sulfanylideneimidazolidin-1-yl}-2-fluorophenyl)phenoxy]ethoxy}ethyl N-[(2S)-1-[(2S,4R )-4-hydroxy-2-({[4-(4-methy1-1,3-thiazol-5-yl)phenyl]methyl}carbamoyl)pyrrolidin-l-yl]-3,3-dimethyl-1-oxobutan-2-yl]carhamate] | < 50 | 51 to 70
Cc1ncsc1-c1ccc(CNC(=O)[C@@H]2C[C@@H](O)CN2C(=O)[C@H](C(C)C)N2Cc3ccccc3C2=O)c(OCCOCCOCCOc2ccc(N3C(=S)N(c4ccc(C#N)c(C(F)(F)F)c4)C(=O)C3(C)C)cc2)c1 [Example 82, (2S,4R)—N-(2-(2-(2-(2-(4-(3-(4-cyano-3-(trifluoromethyl)phenyl)-5,5-dimethyl-4-oxo-2-thioxoimidazolidin-1-yl)phenoxy)ethoxy)ethoxy)ethoxy)-4-(4-methylthiazol-5-yl)benzyl)-4-hydroxy-1-((S)-3-methyl-2-(1-oxoisoindolin-2-yl)butanoyl)pyrrolidine-2-carboxamide] | 51 to 500 | 51 to 70
